Data taken from US11306102B2, “1,3-di-substituted ketene compound and application thereof” (BEBETTER MED INC., priority 2017, dated 2022).

How the values were obtained:
[1] = Pharmacokinetic (PK) experiments after intragastric administration in rats; assay type: in vivo, SD rats
Procedure: Male SD rats, weighing 250-300 grams, were fasted overnight before testing. The test compound was dissolved in 30% sulfobutyl-R-cyclodextrin (SBE-β-CD) and administered intragastrically at a dose of 20 mg/kg. Blood was collected 15 minutes, 30 minutes, and 1, 2, 3, 4, […] and 24 hours after the administration. About 0.3 ml of blood was collected at each time point, placed in a centrifuge tube containing K2-EDTA (dipotassium ethylenediamine tetraacetate) and centrifuged (2,000 g, 10 minutes, 4° C.) to take the plasma, which was stored in an ultra-low temperature refrigerator at −80° C. A 50 μL plasma sample was mixed with 5 μl of internal standard (IS) and extracted with ethyl acetate. The residue was redissolved in acetonitrile after drying under vacuum. The sample was filtered and injected into an LC-MS/MS for analysis.

PPARδ = target: T1, PPARδ (Homo sapiens, UniProt Q03181); test: Hela cell/luciferase reporter gene method, PPARδ agonist activity; assay type: cell-based; details: Hela cells, pPPRE3-TK-Luciferase reporter, 24 hrs incubation; read-out: agonistic activity on PPARδ (EC50)
T1 construct: expressed in transfected cells; host or cells: Hela cells
T1 sequence (Q03181 1-441): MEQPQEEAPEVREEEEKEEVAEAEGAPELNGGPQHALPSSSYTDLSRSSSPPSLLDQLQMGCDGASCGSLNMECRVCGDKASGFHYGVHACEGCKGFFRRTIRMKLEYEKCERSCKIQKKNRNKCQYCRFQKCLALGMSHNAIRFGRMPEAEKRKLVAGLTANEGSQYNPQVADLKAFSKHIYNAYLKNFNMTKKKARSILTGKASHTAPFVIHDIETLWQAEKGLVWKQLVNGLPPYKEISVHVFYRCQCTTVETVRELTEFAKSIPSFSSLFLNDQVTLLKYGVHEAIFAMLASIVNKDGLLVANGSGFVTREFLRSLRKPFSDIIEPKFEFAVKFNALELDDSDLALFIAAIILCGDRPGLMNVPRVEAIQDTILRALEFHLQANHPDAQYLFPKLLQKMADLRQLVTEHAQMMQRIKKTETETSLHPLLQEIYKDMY
Procedure: This example measures the biological activity of a PPAR agonist using the Hela cell/luciferase reporter gene method.
The target plasmids PCMV PPARα (Ampicillin+), PCMV PPARγ (Ampicillin+), PCMV PPARδ (Ampicillin+), and pPPRE3-TK-Luciferase (Ampicillin+) were introduced into DH5a competent cells by heat shock treatment, respectively. After being incubated for 1 hour at 37° C. with shaking (180 rpm), the cells were inoculated on LB agar solid medium containing antibiotic Ampicillin, and invertedly cultured at 37° C. for 12-16 hours. Then the monoclonal colony cultured on the medium was taken and inoculated into LB liquid medium for expanded culture. […] The plasmid obtained by centrifugation was suspended in TE buffer, and the plasmid concentration was measured and the mixture was stored at −20° C. Hela cells in the exponential phase were seeded in 6-well plates (8-10^5 cells/well), and after 6-8 hours of culture, the cells were transfected using Lipofectamine® 3000 Transfection Reagent (Invitrogen; #L3000015). A plasmid containing a PPAR binding site (peroxisome proliferator response element, PPRE) and a firefly luciferase gene (pPPRE3-TK-Luciferase) and PPAR expression vector were co-transfected into a Hela cell with a total amount of plasmid DNA of 2.5 ug (the mass ratio of each PPAR expression vector is pPPRE:PPARα=6:1, pPPRE:PPARδ=8:1, and pPPRE:PPARγ=2:1) to construct a drug screening cell model for PPAR agonists. PPAR was binded to the ligand and then binded to the peroxisome proliferator response element (PPRE), thereby initiating downstream firefly luciferase expression and its expression intensity was directly proportional to the degree of PPAR activation. The cells after 24 hours transfection were prepared into a cell suspension with a cell concentration of […] by a complete culture solution, and seeded into a 96-well plate with 100 ul per well. After overnight culture, the medium was changed to a medium containing 1% FBS. 10 mM candidate compound stock (1000×) were 4-fold diluted in DMSO for 8 points, then supplemented with medium containing 1% FBS to a final concentration of 50 uM (5×) by addition of 25 μl of 5× compound diluent to each well in different concentration gradients and incubated under 37° C., 5% CO2 incubator for 24 hrs. The 96-well plate was taken out and 30 μl of Bright-Glo™ Luciferase Assay System (Promega #E2620) was added to each well. The Luciferase luminescence intensity was measured by a SynergyH1 full-function microplate detector. The obtained data was used to calculate EC50 using GraphPad Prism 5.0 software to determine the biological activity of the compound.

[2] = male, SD, rat, plasma, po, intragastric administration 20 mg/kg

AUC(0-inf) [1, 2]: 1580 ng·h/mL
AUC(0-t) [1, 2]: 1550 ng·h/mL
Cmax [1, 2]: 2780 ng/mL
Tmax [1, 2]: 0.25 h
half-life ([1]; male, SD, rat, plasma, po, intragastric administration 20 mg/kg, read-out: Terminal T1/2 (converted)): 6.84 h
absorption after oral administration compared with Elafibranor (in words) ([1]; oral administration): good absorption
blood exposure after oral administration compared with Elafibranor (in words) ([1]; oral administration): highly effective blood exposure
half-life after oral administration compared with Elafibranor (in words) ([1]; oral administration): significantly prolonged half-life
EC50 (PPARδ): 335 nM
Compound: COc1ccc2cc(C(=O)/C=C/c3cc(C)c(OC(C)(C)C(=O)O)c(C)c3)oc2c1 [Compound 43, (E)-2-(4-(3-(6-methoxybenzofuran-2-yl)-3-oxoprop-1-en-1-yl)-2,6-dimethylphenoxy)-2-methylpropanoic acid]
